In general, IC50 refers to the concentration that gives 50% inhibition.

Experiment [1] concerns the target T1, human histamine H4 receptor (Homo sapiens, UniProt Q9H3N8).
T1 construct: purchased PerkinElmer Inc; host or cells: CHO-K1
The experiment can be described thus: Evaluation of Human H4 Receptor Affinity ([3H]histamine binding). Particulars: inhibition constant Ki, CHO-K1 membrane preparation, read-out: Evaluation of H4 Receptor Affinity. In a few lines: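 Membranes from CHO-K1 cells expressing human H4 receptor incubated with 8.2 nM [3H]histamine and compound for 90 min at 25 °C in 50 mM Tris-HCl pH 7.4, 1.25 mM EDTA, then filtered and counted. Nonspecific binding defined with 1.0 μM histamine; Ki from IC50 by Cheng-Prusoff using Kd 5.7 nM.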

Experiment [2] concerns the target T1, human histamine H4 receptor. Kind of experiment: Evaluation of H4 Receptor Function ([35S]GTPγS binding). The experiment is classed as biochemical. Particulars: [35S]GTPγS binding, CHO-K1 membrane, 0.1 μM histamine; read-out: Evaluation of H4 Receptor Function (IC50 value, antagonistic effect). How it is done:
The antagonistic effect was evaluated by the method described below. Membrane preparation from recombinant CHO-K1 cell expressing the human histamine H4 receptor (PerkinElmer Inc.), 10 μM GDP, 0.1 μM histamine, and the compounds dissolved in DMSO were reacted at 30° C. for 20 minutes in a buffering solution containing 20 mM HEPES, pH 7.4, 100 mM NaCl, 10 mM MgCl2, 1 mM DTT, and 1 mM EDTA on an assay plate. Thereafter, SPA beads (Amersham plc) were added, followed by incubation for 60 minutes, and further 0.3 nM [^35S]GTPγS (PerkinElmer Inc.) was added, followed by incubation for 30 minutes.

In experiment [3] the target is T2, human histamine H1 receptor (Homo sapiens, UniProt P35367). Kind of experiment: Evaluation of Human H1 Receptor Affinity ([3H]pyrilamine binding). The arrangement: purchased PerkinElmer Inc; host or cells: CHO-K1. The note with it: inhibition constant Ki, CHO-K1 membrane preparation. Summed up: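 Ki values are Cheng-Prusoff conversions of IC50 (Kd 1.1 nM) from radioligand displacement of 1.2 nM [3H]pyrilamine, with 1.0 μM pyrilamine defining nonspecific binding.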

Experiment [4] has as its target T2, human histamine H1 receptor. Kind of experiment: Evaluation of Human H1 Receptor Function (GeneBLAzer H1-NFAT-bla HEK 293T cells). Particulars: histamine 30 nM, read-out: Evaluation of H1 Receptor Function (IC50 value, antagonistic effect). Type of experiment: cell-based. How it is done:
Test Example 3: Evaluation of Human H1 Receptor Function
The antagonistic effect was evaluated by the method described below. GeneBLAzer® H1-NFAT-bla HEK 293T-cells (Invitrogen Corporation, recombinant cells expressing the human histamine H1 receptor) were incubated at 37° C. for 30 minutes in the presence of the test compounds dissolved in DMSO in a high glucose Dulbecco's Modified Eagle Medium (GlutaMAX, containing 10% fetal bovine serum, 100 μM nonessential amino acids, 25 mM HEPES, 100 U/mL penicillin, and 100 μg/mL streptomycin), and histamine was added such that the final concentration became 30 nM, followed by further incubation for 4.5 hours. Then, a mixture of LiveBLAzer™ FRET-B/G Loading Kit (Invitrogen Corporation) and Solution D (Invitrogen Corporation) was added, followed by leaving to stand at room temperature for 2 hours under shaded conditions. Thereafter, the fluorescence intensity was measured under two conditions of 400 nm/460 nm and 400 nm/535 nm (excitation light/fluorescence) by using a multilabel counter (EnVision: PerkinElmer Inc.). The 50% inhibitory concentration (IC50 value) was calculated in accordance with (measured value−blank measured value at 400 nm/460 nm)/(measured value−blank measured value at 400 nm/535 nm) of each test sample.

T1 sequence (Q9H3N8 whole entry): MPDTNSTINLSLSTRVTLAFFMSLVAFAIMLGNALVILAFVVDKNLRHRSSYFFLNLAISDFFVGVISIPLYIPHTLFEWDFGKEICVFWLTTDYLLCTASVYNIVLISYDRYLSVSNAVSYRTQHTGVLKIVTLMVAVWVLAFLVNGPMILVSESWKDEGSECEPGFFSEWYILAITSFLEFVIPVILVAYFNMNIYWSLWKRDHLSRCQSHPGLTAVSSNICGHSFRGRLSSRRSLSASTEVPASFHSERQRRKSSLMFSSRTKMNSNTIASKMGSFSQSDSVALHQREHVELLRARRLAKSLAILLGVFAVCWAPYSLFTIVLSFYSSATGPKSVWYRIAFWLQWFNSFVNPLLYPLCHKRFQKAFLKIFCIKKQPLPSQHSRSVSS
T2 sequence (P35367 whole entry): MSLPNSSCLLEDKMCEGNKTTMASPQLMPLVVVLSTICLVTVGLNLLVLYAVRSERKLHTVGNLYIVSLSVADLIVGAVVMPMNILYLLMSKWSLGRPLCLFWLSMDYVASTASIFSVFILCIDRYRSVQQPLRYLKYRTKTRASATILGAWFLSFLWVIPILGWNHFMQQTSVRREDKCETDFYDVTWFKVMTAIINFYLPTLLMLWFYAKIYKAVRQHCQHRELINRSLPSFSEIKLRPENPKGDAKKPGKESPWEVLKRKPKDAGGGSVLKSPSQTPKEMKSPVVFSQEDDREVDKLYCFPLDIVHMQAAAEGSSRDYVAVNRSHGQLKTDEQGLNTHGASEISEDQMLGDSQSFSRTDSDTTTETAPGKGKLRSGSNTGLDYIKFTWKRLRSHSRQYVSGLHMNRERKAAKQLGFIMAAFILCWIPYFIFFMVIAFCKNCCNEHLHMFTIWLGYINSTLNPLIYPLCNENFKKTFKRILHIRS

Consider `Nc1nc2c(c(N3CCN(CCOCCOCC(=O)O)CC3)n1)CCc1cc(OCc3ccc(Cl)cc3)ccc1-2` [11(b), 2-(2-(2-(4-(2-amino-8-((4-chlorobenzyl)oxy)-5,6-dihydrobenzo[h]quinazolin-4-yl)piperazin-1-yl)ethoxy)ethoxy)acetic Acid], for which the Ki in experiment [1] and in experiment [3] was below 100 nM each time. The concentration for half-maximal inhibition (IC50) in experiment [2] is 200 to 2000 nM; in experiment [4] it was below 200 nM.
In the case of `CN1CCCN(c2nc(N)nc3c2CCc2cc(NS(=O)(=O)c4ccc(OC(F)(F)F)cc4)ccc2-3)CC1` [Example 193, N-(2-amino-4-(4-methyl-1,4-diazepan-1-yl)-5,6-dihydrobenzo[h]quinazolin-8-yl)-4-(trifluoromethoxy)benzenesulfonamide bis(trifluoroacetate)], the Ki in experiment [1] and in experiment [3] was below 100 nM throughout.
For the compound `CN1CCN(c2nc(N)nc3c2CCc2cc(NS(=O)(=O)N4CCC(F)(F)CC4)ccc2-3)CC1` [Example 194, N-(2-amino-4-(4-methylpiperazin-1-yl)-5,6-dihydrobenzo[h]quinazolin-8-yl)-4,4-difluoropiperidine-1-sulfonamide], the Ki in experiment [1] and in experiment [3] was 100 to 500 nM in each case.
`CN1CCN(c2nc(N)nc3c2CCc2cc(NC(=O)Nc4ccc(Cl)cc4)ccc2-3)CC1` [Example 195, 1-(2-amino-4-(4-methylpiperazin-1-yl)-5,6-dihydrobenzo[h]quinazolin-8-yl)-3-(4-chlorophenyl)urea]: the Ki in experiment [1] was below 100 nM; in experiment [3], 100 to 500 nM.
As for `CN1CCN(c2nc(N)nc3c2CCc2cc(OCc4ccc(Br)cc4)ccc2-3)CC1` [Example 197, 8-((4-bromobenzyl)oxy)-4-(4-methylpiperazin-1-yl)-5,6-dihydrobenzo[h]quinazolin-2-amine], the Ki in experiment [1] and in experiment [3] was below 100 nM each time.
For the compound `CN1CCN(c2nc(N)nc3c2CCc2cc(OCc4ccc(OC(F)(F)F)cc4)ccc2-3)CC1` [Example 198, 4-(4-methylpiperazin-1-yl)-8-((4-(trifluoromethoxy)benzyl)oxy)-5,6-dihydrobenzo[h]quinazolin-2-amine], the Ki in experiment [1] and in experiment [3] was below 100 nM in each case.
Turning to `CN1CCN(c2nc(N)nc3c2CCc2cc(OCC4CCOCC4)ccc2-3)CC1` [Example 199, 4-(4-methylpiperazin-1-yl)-8-((tetrahydro-2H-pyran-4-yl)methoxy)-5,6-dihydrobenzo[h]quinazolin-2-amine], the Ki in experiment [1] and in experiment [3] was 100 to 500 nM each time.
Take `CN1CCN(c2nc(N)nc3c2CCc2ccc(OCc4ccccc4)cc2-3)CC1` [Example 200, 9-(benzyloxy)-4-(4-methylpiperazin-1-yl)-5,6-dihydrobenzo[h]quinazolin-2-amine]: the Ki in experiment [1] and in experiment [3] was below 100 nM throughout.
As for `CN1CCN(c2nc(N)nc3c2CCCc2ccc(OCc4ccccc4)cc2-3)CC1` [Example 202, 10-(benzyloxy)-4-(4-methylpiperazin-1-yl)-6,7-dihydro-5H-benzo[6,7]cyclohepta[1,2-d]pyrimidin-2-amine], the Ki was below 100 nM in experiment [1] and 100 to 500 nM in experiment [3].
The matching figures for `CN1CCN(c2nc(N)nc3c2oc2ccc(OCc4ccccc4)cc23)CC1` [Example 203, 8-(benzyloxy)-4-(4-methylpiperazin-1-yl)benzofuro[3,2-d]pyrimidin-2-amine]: below 100 nM and below 100 nM.
In the case of `CN1CCN(c2nc(N)nc3c2CCOc2cc(OCc4ccccc4)ccc2-3)CC1` [Example 204, 9-(benzyloxy)-4-(4-methylpiperazin-1-yl)-5,6-dihydrobenzo[2,3]oxepino[4,5-d]pyrimidin-2-amine], the Ki in experiment [1] and in experiment [3] was below 100 nM throughout.
`Nc1nc2c(c(N3CCN(CCO[C@H]4C[C@@H](C(=O)O)C4)CC3)n1)CCc1cc(OCc3ccc(OC(F)(F)F)cc3F)ccc1-2` [Example 205, cis-3-(2-(4-(2-amino-8-((2-fluoro-4-(trifluoromethoxy)benzyl)oxy)-5,6-dihydrobenzo[h]quinazolin-4-yl)piperazin-1-yl)ethoxy)cyclobutane-1-carboxylic acid]: the Ki in experiment [1] and in experiment [3] was below 100 nM in each case.
As for `Nc1nc2c(c(N3CCN(CCO[C@H]4C[C@@H](C(=O)O)C4)CC3)n1)CCc1cc(OCc3ccc(OC(F)(F)F)c(F)c3)ccc1-2` [Example 206, cis-3-(2-(4-(2-amino-8-((3-fluoro-4-(trifluoromethoxy)benzyl)oxy)-5,6-dihydrobenzo[h]quinazolin-4-yl)piperazin-1-yl)ethoxy)cyclobutane-1-carboxylic acid], the Ki in experiment [1] and in experiment [3] was below 100 nM each time.
As to `COc1cc(OC(F)(F)F)ccc1COc1ccc2c(c1)CCc1c-2nc(N)nc1N1CCN(CCO[C@H]2C[C@@H](C(=O)O)C2)CC1` [Example 207, cis-3-(2-(4-(2-amino-8-((2-methoxy-4-(trifluoromethoxy)benzyl)oxy)-5,6-dihydrobenzo[h]quinazolin-4-yl)piperazin-1-yl)ethoxy)cyclobutane-1-carboxylic acid], the Ki in experiment [1] and in experiment [3] was below 100 nM in each case.
As to `Cc1cc(OC(F)(F)F)ccc1COc1ccc2c(c1)CCc1c-2nc(N)nc1N1CCN(CCO[C@H]2C[C@@H](C(=O)O)C2)CC1` [Example 208, cis-3-(2-(4-(2-amino-8-((2-methyl-4-(trifluoromethoxy)benzyl)oxy)-5,6-dihydrobenzo[h]quinazolin-4-yl)piperazin-1-yl)ethoxy)cyclobutane-1-carboxylic acid], the Ki in experiment [1] and in experiment [3] was below 100 nM each time.
With `Nc1nc2c(c(N3CCN(CCO[C@H]4C[C@@H](C(=O)O)C4)CC3)n1)CCc1cc(OCc3ccc(OC(F)F)cc3)ccc1-2` [Example 210, cis-3-(2-(4-(2-amino-8-((4-(difluoromethoxy)benzyl)oxy)-5,6-dihydrobenzo[h]quinazolin-4-yl)piperazin-1-yl)ethoxy)cyclobutane-1-carboxylic acid], the Ki in experiment [1] and in experiment [3] was below 100 nM each time.
Turning to `Nc1nc2c(c(N3CCN(CCO[C@H]4C[C@@H](C(=O)O)C4)CC3)n1)CCc1cc(OCc3ccc(SC(F)(F)F)cc3)ccc1-2` [Example 211], the Ki in experiment [1] and in experiment [3] was below 100 nM throughout.
For `Nc1nc2c(c(N3CCN(CCO[C@H]4C[C@@H](C(=O)O)C4)CC3)n1)CCc1cc(OCc3ccc(S(=O)(=O)C(F)(F)F)cc3)ccc1-2` [Example 212, cis-3-(2-(4-(2-amino-8-((4-((trifluoromethyl)sulfonyl)benzyl)oxy)-5,6-dihydrobenzo[h]quinazolin-4-yl)piperazin-1-yl)ethoxy)cyclobutane-l-carboxylic acid], the Ki in experiment [1] and in experiment [3] was below 100 nM throughout.
As to “cis-3-(2-(4-(2-amino-8-((4-((trifluoromethyl)cyclohexyl)methoxy)-5,6-dihydrobenzo[h]quinazolin-4-yl)piperazin-1-yl)ethoxy)cyclobutane-l-carboxylic acid [Example 215]”, the Ki in experiment [1] is 100 to 500 nM; in experiment [3], below 100 nM.
In the case of “cis-3-(2-(4-(2-amino-8-((4-cyclopropylbenzyl)oxy)-5,6-dihydrobenzo[h]quinazolin-4-yl)piperazin-1-yl)ethoxy)cyclobutane-l-carboxylic acid [Example 214]”, the Ki in experiment [1] and in experiment [3] was below 100 nM each time.
Turning to “trans-4-((2-(4-(2-amino-8-((4-cyanobenzyl)oxy)-5,6-dihydrobenzo[h]quinazolin-4-yl)piperazin-1-yl)ethoxy)cyclohexane-l-carboxylic acid [Example 213]”, the Ki in experiment [1] was 100 to 500 nM; in experiment [3] it was below 100 nM.

The values are drawn from patent publication US20190047966A1, “NOVEL COMPOUND AND PHARMACOLOGICALLY ACCEPTABLE SALT THEREOF” (MEIJI SEIKA PHARMA CO., LTD., priority 2016, published 2019).
